Where a name gives a salt, the structure may show the parent alone.

The record followed here is patent US20050187208A1 (priority 2004, published 2005).

Data set [1] concerns cannabinoid receptors. The experiment in a line: Mouse tetrad model, antagonistic effect against Win 55212-2. It is filed as in vivo. More on the design: unit not given here. The conditions noted are these: 5 mg/kg i.v. prior to Win 55212-2 1.25 mg/kg i.v.; male NMRI mice. An excerpt:
(§1) Substances with affinity for cannabinoid receptors are known to produce a wide range of pharmacological effects. It is also known that intravenous administration of a substance with affinity for cannabinoid receptors in mice produces analgesia, hypothermia, sedation and catalepsy. Individually, none of these effects can be considered as proof that a tested substance has affinity for cannabinoid-receptors, since all of these effects are common for various classes of centrally active agents. However, substances, which show all of these effects, i.e. substances that are active in this so-called tetrad model are considered to have affinity for the cannabinoid receptors. It has further been shown that cannabinoid receptor antagonists are higly effective in blocking the effects of a cannabinoid agonist in the mouse tetrad model.
(§2) The tetrad model is described, for example, in the publication of A. C. Howlett et al, International Union of Pharmacology XXVII. Classification of Cannabinoid Receptors, Pharmacol Rev 54, 161-202, 2002 and David R. Compton et al., “In-vivo Characterization of a Specific Cannabinoid Receptor Antagonist (SR141716A): Inhibition of Tetrahydrocannbinol-induced Responses and Apparent Agonist Activity”, J. Pharmacol. Exp. Ther. 277, 2, 586-594, 1996. The corresponding parts of the description are hereby incorporated by reference.
(§3) Male NMRI mice with a weight of 20-30 g (Harlan, Barcelona, Spain) are used in all of the following experiments.
(§4) Before testing in the behavioral procedures given below, mice are acclimatized to the experimental setting. Pre-Treatment control values are determined for analgesia hot plate latency (in seconds), rectal temperature, sedation and catalepsy.
(§5) In order to determine the agonistic activty of the substance to be tested, the mice are injected intravenously with the substance to be tested or the vehicle alone. 15 minutes after injection, latency in hot plate analgesia is measured. Rectal temperature, sedation and catalepsy are measured 20 minutes after injection.
In order to determine the antagonistic activity the identical procedure is used as for the determination of the agonistic effects, but with the difference that the substance to be evaluated for its antagonistic activity is injectected 5 minutes before the intravenous injection of 1.25 mg/kg Win-55,212 a known cannabinoid-receptor agonist.
(§6) The hot plate analgesia is determined according to the method described in Woolfe D. et al. “The evaluation of analgesic action of pethidine hydrochloride (Demerol)”, J. Pharmacol. Exp. Ther. 80, 300-307, 1944. The respective description is hereby incorporated by reference and forms part of the present disclosure.
(§7) The mice are placed on a hot plate (Harvard Analgesimeter) at 55±0.5° C. until they show a painful sensation by licking their paws or jumping and the time for these sensations to occur is recorded. This reading is considered the basal value (B). The maximum time limit the mice are allowed to remain on the hot plate in absence of any painful response is 40 seconds in order to prevent skin damage. This period is called the cut-off time (PC).
(§8) Fifteen minuts after the administration of the substance to be tested, the mice are again placed on the hot plate and the afore described procedure is repeated. This period is called the post-treatment reading (PT).
(§9) The degree of analgesia is calculated from the formula: % MPE of Analgesia=(PT−B)/(PC−B)×100 • MPE Maximum possible effect. Determination of Sedation and Ataxia
(§10) Sedation and ataxia is determined according to the method described in Desmet L. K. C. et al. “Anticonvulsive properties of.Cinarizine and Flunarizine in Rats and Mice”, Arzneim. -Forsch. (Frug Res) 25, 9, 1975. The respective description is hereby incorporated by reference and forms part of the present disclosure.
The chosen scoring system is • 0: no ataxia; • 1: doubful; • 2: obvious calmness and quiet; • 3 pronounced ataxia; prior to as well as after treatment. […]

The target of data set [2] is T1, transfected human CB1 receptor (Homo sapiens, UniProt P21554).
T1 construct: purchased Receptor Biology, Inc
In words: In-vitro determination of affinity to CB1 receptor, radioligand [^3H]-CP55940. In kind it is binding. As to conditions: read-out: CB1 Receptor % Inhibition 10^−6 M. Here is the method: I. In-vitro Determination of Affinity to CB1/CB2-Rezeptors
The in-vitro determination of the affinity of the inventive substituted azetidine compounds to CB1/CB2-Receptors is carried out as described in the publication of Ruth A. Ross, Heather C. Brockie et al., “Agonist-inverse agonist characterization at CB1 and CB2 cannabinoid receptors of L-759633, L759656 and AM630”, British Journal of Pharmacology, 126, 665-672, (1999). The respective parts of the descriptions are hereby incorporated by reference and form part of the present disclosure. The transfected human CB1 and CB2 receptor are obtained from Receptor Biology, Inc. The radioligand used for both receptors is [^3H]-CP55940.
The affinity of the inventive substituted azetidine compounds to CB1/CB2 receptors is determined as described above.

Data set [3] deals with cannabinoid receptors. In words: Mouse tetrad model, agonistic effect (hot plate, hypothermia, catalepsy, sedation). It is filed as in vivo. More on the design: key to Agonistic effect A: Hot-Plate test: % MPE = (PT−B)/(PC−B)×100; key to Agonistic effect D: Sedation: % sedation = mean score (0-3)/3×100; Agonistic effect B: Hypothermia: unit not given here. As to conditions: 5 mg/kg i.v., male NMRI mice.
Description: as §1, §2, §3, §4, §5, §6, §7, §8, §9, §10
The chosen scoring system is • 0: no ataxia; • 1: doubful; • 2: obvious calmness and quiet; • 3 pronounced ataxia; prior to as well as after treatment.
The percentage of sedation is determined according to the formula: % of sedation=arithmetic mean/3×100 Hypothermia: […]

T1 sequence (P21554 whole entry): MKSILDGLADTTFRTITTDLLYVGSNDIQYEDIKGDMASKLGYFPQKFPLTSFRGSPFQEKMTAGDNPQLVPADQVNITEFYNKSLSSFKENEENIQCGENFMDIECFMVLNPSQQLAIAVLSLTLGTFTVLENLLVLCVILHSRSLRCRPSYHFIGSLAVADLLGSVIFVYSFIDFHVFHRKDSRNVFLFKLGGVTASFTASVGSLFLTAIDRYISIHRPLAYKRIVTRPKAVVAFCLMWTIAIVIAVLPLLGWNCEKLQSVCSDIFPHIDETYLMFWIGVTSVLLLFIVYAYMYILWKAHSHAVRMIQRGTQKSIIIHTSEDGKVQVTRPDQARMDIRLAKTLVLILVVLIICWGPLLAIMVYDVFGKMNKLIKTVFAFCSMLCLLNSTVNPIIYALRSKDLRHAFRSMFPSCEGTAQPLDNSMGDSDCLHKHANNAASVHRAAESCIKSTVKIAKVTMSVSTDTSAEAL

A word on the melting point: it is the temperature, or range, at which the solid turns liquid. Consider `Cc1nn(C)c(C)c1S(=O)(=O)N[C@H]1CN(C(c2ccc(Cl)cc2)c2ccc(Cl)cc2)[C@@H]1C`, for which the melting point lay within 173 to 175 °C.

The compound `C[C@@H]1[C@@H](N(S(=O)(=O)c2ccc(F)cc2)S(=O)(=O)c2ccc(F)cc2)CN1C(c1ccc(Cl)cc1)c1ccc(Cl)cc1` yielded a melting point of 60 to 64 °C.

`C[C@H]1[C@H](NC(=O)C2CCCCC2)CN1C(c1ccc(Cl)cc1)c1ccc(Cl)cc1` had a melting point of 65 to 68 °C.

In the case of `C[C@H]1[C@H](NC(=O)c2cc(F)cc(F)c2)CN1C(c1ccc(Cl)cc1)c1ccc(Cl)cc1`, the melting point was 57 to 60 °C.

In turn, `C[C@H]1C(NS(=O)(=O)c2ccc(F)cc2)CN1C(c1ccc(Cl)cc1)c1ccc(Cl)cc1` (mixture of isomers) registered a melting point of 154 to 157 °C.

`C[C@@H]1[C@@H](NS(=O)(=O)c2ccc(-c3ccccc3)cc2)CN1C(c1ccc(Cl)cc1)c1ccc(Cl)cc1` (relative stereo) displayed a melting point of 145 to 148 °C.

In turn, `C[C@@H]1[C@@H](NS(=O)(=O)c2c(Cl)nc3sccn23)CN1C(c1ccc(Cl)cc1)c1ccc(Cl)cc1` (relative stereo) registered a melting point of 164 to 169 °C.

What is called inhibition is the change of the read-out against control, counted positive when it falls. Compound `C[C@@H]1[C@@H](OS(=O)(=O)c2ccc(F)cc2)CN1C(c1ccc(Cl)cc1)c1ccc(Cl)cc1` (relative stereo) [Example 1, 4-Fluoro-benzenesulfonic acid-trans-1-[bis-(4-chloro-phenyl)-methyl]-2-methyl-azetidin-3-yl ester] came in with a melting point of 105 to 107 °C. Besides, in data set [1], the “Antagonistic Effect A: Hot-Plate test” value is listed as 46 and the “Antagonistic Effect C: Catalepsy” value is on record as 47. In data set [2], the inhibition at 1 µM came to 60%.

On to `C[C@@H]1[C@@H](NS(=O)(=O)c2cccc3nsnc23)CN1C(c1ccc(Cl)cc1)c1ccc(Cl)cc1` (relative stereo) [Example 15, 2,1,3-Benzothiadiazole-4-sulfonic acid {trans-1-[bis-(4-chloro-phenyl)-methyl]-2-methyl-azetidin-3-yl}-amide], for which, in data set [1], the “Antagonistic Effect A: Hot-Plate test” value amounted to 72, the “Antagonistic Effect B: Hypothermia” value was determined as 100, the “Antagonistic Effect C: Catalepsy” value was determined as 57 and the “Antagonistic Effect D: Sedation” value is reported as 71. In data set [2], the inhibition at 1 µM came to 66%. The “Agonistic effect A: Hot-Plate test” value in data set [3] (15 minutes after injection) is 14. In data set [3] (20 minutes after injection), the “Agonistic effect B: Hypothermia” value amounted to 0, the “Agonistic effect C: Catalepsy” value turned out to be 0 and the “Agonistic effect D: Sedation” value was found to be 0.

Take `C[C@@H]1[C@@H](NS(=O)(=O)c2cc(Cl)cc(Cl)c2)CN1C(c1ccc(Cl)cc1)c1ccc(Cl)cc1` (relative stereo) [Example 18, N-{trans-1-[Bis-(4-chloro-phenyl)-methyl]-2-methyl-azetidin-3-yl}-3,5-dichloro-benzenesulfonamide]: the melting point was 144 to 146 °C. Moreover, in data set [2], the inhibition at 1 µM amounted to 95%.

In turn, `C[C@@H]1[C@@H](NS(=O)(=O)c2csc3ccccc23)CN1C(c1ccc(Cl)cc1)c1ccc(Cl)cc1` (relative stereo) [Example 25, Benzo[b]thiophene-3-sulfonic acid {trans-1-[bis-(4-chloro-phenyl)-methyl]-2-methyl-azetidin-3-yl}amide] came in with a melting point of 192 to 197 °C. In data set [2], the inhibition at 1 µM was found to be 87%.

Take `C[C@@H]1[C@@H](NS(=O)(=O)c2ccc3ccccc3c2)CN1C(c1ccc(Cl)cc1)c1ccc(Cl)cc1` (stereo in doubt): the melting point lay within 156 to 160 °C.

Turning to `CC(=O)c1ccc(S(=O)(=O)N[C@H]2CN(C(c3ccc(Cl)cc3)c3ccc(Cl)cc3)[C@@H]2C)cc1` (stereo in doubt), the melting point was 177 to 180 °C.

As to `C[C@@H]1[C@@H](NS(=O)(=O)c2ccc(Oc3ccc(Br)cc3)cc2)CN1C(c1ccc(Cl)cc1)c1ccc(Cl)cc1` (stereo in doubt), the melting point is 115 to 119 °C.

As for `Cc1c(S(=O)(=O)N[C@H]2CN(C(c3ccc(Cl)cc3)c3ccc(Cl)cc3)[C@@H]2C)sc2ccc(Cl)cc12` (stereo in doubt), the melting point was in the range of 105 to 108 °C.

Consider `C[C@@H]1[C@@H](NS(=O)(=O)CCc2cccc3ccccc23)CN1C(c1ccc(Cl)cc1)c1ccc(Cl)cc1` (stereo in doubt), for which the melting point was 123 to 128 °C.

In turn, `C[C@@H]1[C@@H](NS(=O)(=O)c2cccc3ccccc23)CN1C(c1ccc(Cl)cc1)c1ccc(Cl)cc1` (stereo in doubt) yielded a melting point of 171 to 174 °C.

In the case of `C[C@@H]1[C@@H](NS(=O)(=O)c2ccc(Oc3ccccc3)cc2)CN1C(c1ccc(Cl)cc1)c1ccc(Cl)cc1` (stereo in doubt), the melting point was 160 to 162 °C.

For the compound `Cc1c(S(=O)(=O)N[C@H]2CN(C(c3ccc(Cl)cc3)c3ccc(Cl)cc3)[C@@H]2C)cnn1-c1ccccc1` (stereo in doubt), the melting point lay within 173 to 176 °C.

For `C[C@@H]1C(N(C)S(=O)(=O)c2ccc(F)cc2)CN1C(c1ccc(Cl)cc1)c1ccc(Cl)cc1` (stereo in doubt), the melting point was in the range of 182 to 186 °C.

Compound `C[C@@H]1[C@@H](N(Cc2ccc(F)cc2)S(=O)(=O)c2ccc(F)cc2)CN1C(c1ccc(Cl)cc1)c1ccc(Cl)cc1` (stereo in doubt) returned a melting point of 75 to 78 °C.

Turning to `CCCN([C@H]1CN(C(c2ccc(Cl)cc2)c2ccc(Cl)cc2)[C@@H]1C)S(=O)(=O)c1ccc(F)cc1` (stereo in doubt), the melting point was 91 to 97 °C.

For the compound `C[C@H]1[C@H](N)CN1C(c1ccc(Cl)cc1)c1ccc(Cl)cc1` (stereo in doubt), the melting point fell in the range of 134 to 136 °C.

On to `C[C@H]1[C@H](NC(=O)C(F)(F)F)CN1C(c1ccc(Cl)cc1)c1ccc(Cl)cc1` (stereo in doubt) (as salt: TFA), for which the melting point fell in the range of 122 to 127 °C.

As to `C[C@@H]1[C@@H](NS(=O)(=O)c2ccc(F)cc2)CN1C(c1ccc(Cl)cc1)c1ccc(Cl)cc1` [Example 33, N-{(2R,3S)-1-[Bis-(4-chloro-phenyl)-methyl]-2-methyl-azetidin-3-yl}-4-fluoro-benzenesulfonamide], the melting point was 154 to 158 °C. The inhibition at 1 µM in data set [2] worked out at 71%.
